Laboratory results from publication doi:10.1101/2024.08.25.609621 (bioRxiv, 2024).
Several values for one entry are separate records, joined by “and”; a condition that tells them apart may be missing. Equal values may be shown once. Read-outs that look alike come from different tables or passages of the source.

Columns and labels:
[1] = biological target: SARS-CoV-2 NSP3 macrodomain (Mac1) (Severe acute respiratory syndrome coronavirus 2, UniProt P0DTD1); test: biochemical; type: binding; settings: for SARS CoV-2 macrodomain HTRF assay: Hillslope: dose-response fit
[2] = biological target: SARS-CoV-2 NSP3 macrodomain (Mac1), P43 crystal form (Severe acute respiratory syndrome coronavirus 2, UniProt P0DTD1); type: binding; settings: for 1-BDC: PanDDA background density correction; for Total number of conformations: ligand conformations modeled in Mac1 crystal structure; for X-ray crystallography: Binding site: site where the ligand is bound in the X-ray crystal structure
[3] = crystal soak concentration 10 mM, event 1
[4] = crystal soak concentration 10 mM, P43 crystals
[5] = crystal soak concentration 10 mM
[6] = occupancy estimate from PanDDA BDC
[7] = TRUE = crystal structure with ligand determined
[8] = crystal soak, soak concentration 10 mM, P43 crystals, TRUE = ligand-binding event identified
[9] = crystal soak, soak concentration 10 mM
[10] = crystal soak, soak concentration 10 mM, event 1
[11] = occupancy estimate from PanDDA 1-BDC
[12] = site of Mac1 where ligand bound in crystal structure
[13] = SARS CoV-2 macrodomain HTRF assay, dose-response
[14] = Single dose, concentration 200 μM, read-out: Average % competition
[15] = preliminary screen, compound at 200 μM, mean of 3-4 technical replicates, read-out: % competition in HTRF assay
[16] = X-ray crystal structure determined (TRUE)
[17] = crystal soak, soak concentration 10 mM, TRUE = ligand hit
[18] = site of ligand in X-ray crystal structure
[19] = Dose-response, SARS CoV-2 macrodomain HTRF assay
[20] = Single dose, 200 μM, mean of three technical replicates, read-out: Average % competition
[21] = crystal soak concentration 20 mM
[22] = crystal soak concentration 20 mM, event 1
[23] = crystal soak concentration 20 mM, P43 crystals
[24] = crystal soak 10 mM, P43 crystals
[25] = Single dose, concentration 200 μM, read-out: SARS CoV-2 macrodomain HTRF assay: Average % competition

| SMILES | Hill slope ([1]; HTRF dose-response fit, Mac1) | SARS CoV-2 macrodomain HTRF assay: Hillslope [1] | Occupancy difference (refined_occupancy - 2*(1-BDC)) [2] | Refined ligand occupancy (%) [2] [%] | 1-BDC [2] | Total number of conformations [2] | 2*(1-BDC) (%) [2, 6] [%] | X-ray crystallography: Binding site [2] | X-ray crystal structure [2, 7] | 2*(1-BDC) (%) [2, 11] [%] | Binding site [2, 12] | inhibition at 200 µM [1, 15] [%] | PanDDA run, DMSO background map: 1-BDC ([2]; event 1) | also measured |
| --- | --- | --- | --- | --- | --- | --- | --- | --- | --- | --- | --- | --- | --- | --- |
| Cc1c[nH]c2ncnc(NCC3(O)CCOCC3)c12 [AVI-4194, 4-(((5-methyl-7H-pyrrolo[2,3-d]pyrimidin-4-yl)amino)methyl)tetrahydro-2H-pyran-4-ol] | 1.3 | 1.3 | 0 | 18 | 0.09 | 1 | 18 | Adenosine | – | – | – | – | – | PanDDA run, DMSO background map: 1-BDC [2, 3]: 0.13 and 0.09; Pandda run, overall: Hit [2, 4]: TRUE; Pandda run, overall: Modeled [2, 4]: TRUE; Pandda run, overall: Modeling comment [2, 4]: Duplicate, not modeled; PanDDA run, DMSO background map: Hit [2, 5]: TRUE; PanDDA run, DMSO background map: Modeled [2, 5]: TRUE |
| Nc1nnc(SCCn2c(=O)oc3ccccc32)s1 [AVI-296] | – | – | – | – | 0.06 | 1 | – | – | TRUE | 12 | Distal | – | – | Average % competition ([1]; Single dose, 200 μM, mean of three technical replicates): 7%; Pandda run, overall: Hit [2, 8]: TRUE; PanDDA run, DMSO background map: Hit [2, 9]: TRUE; PanDDA run, DMSO background map: Modeled [2, 9]: TRUE; PanDDA run, DMSO background map: 1-BDC [2, 10]: 0.06; Pandda run, overall: Modeled ([2]; crystal soak, soak concentration 10 mM, TRUE = ligand modeled): TRUE |
| OCCC(CO)Nc1ncnc2[nH]ccc12 (stereo not drawn) [AVI-3734] | 1.2 | – | – | – | 0.25 | 1 | – | – | – | 50 | – | 86 | – | Hill slope [1, 13]: 1.2; inhibition at 200 µM [1, 14]: 86%; X-ray crystal structure [2, 16]: TRUE; Pandda run, overall: Modeled [2, 9]: TRUE; Pandda run, overall: Hit [2, 17]: TRUE; Binding site [2, 18]: Adenosine; PanDDA run, DMSO background map: 1-BDC ([2]; soak concentration 10 mM): 0.25; PanDDA run, DMSO background map: Hit ([2]; soak concentration 10 mM): TRUE |
| OC1(CNc2ncnc3[nH]ccc23)CCOCC1 [AVI-4314] | 1.2 | 1.2 | 0 | 30 | 0.15 | 1 | 30 | Adenosine | – | – | – | – | 0.15 and 0.16 | – |
| CC(C)(CO)Nc1ncnc2[nH]ccc12 [AVI-5266] | 1.1 | – | 16 | 40 | 0.12 | 1 | 24 | – | – | – | – | 56 | 0.12 | Hill slope [1, 13]: 1.1; inhibition at 200 µM [1, 14]: 56%; X-ray crystal structure [2, 16]: TRUE; Binding site [2, 18]: Adenosine |
| O=C1CCc2cc(C(=O)N3CC(C(=O)O)CCC34CCCC4)c(F)cc2N1 (stereo not drawn) [AVI-338] | 1.5 | – | 0 | 14 | 0.07 | 1 | 14 | – | TRUE | – | Adenosine | 23 | – | Hill slope [1, 19]: 1.5; inhibition at 200 µM [1, 20]: 23%; PanDDA run, DMSO background map: Hit [2, 21]: TRUE; PanDDA run, DMSO background map: Modeled [2, 21]: TRUE; PanDDA run, DMSO background map: 1-BDC [2, 22]: 0.07; Pandda run, overall: Hit [2, 23]: TRUE; Pandda run, overall: Modeled [2, 23]: TRUE |
| C[C@@H]1CCN(c2ncnc3[nH]ccc23)[C@H](CO)C1 (racemic) [AVI-4064] | 1.2 | 1.2 | 0 | 38 | 0.19 | 2 | 38 | Adenosine | – | – | – | – | – | Hit (PanDDA run, overall) [2, 24]: TRUE; Hit (PanDDA run, DMSO background map) ([2]; crystal soak 10 mM): TRUE; 1-BDC (PanDDA run, DMSO background map) ([2]; crystal soak 10 mM, event 1): 0.19 |
| CC1CCC(O)(CNc2ncnc3[nH]ccc23)CC1 (stereo not drawn) [AVI-4312] | 1.2 | 1.2 | 0 | 44 | 0.22 | 1 | 44 | Adenosine | – | – | – | – | 0.22 and 0.3 | – |
| CC(C)n1nnnc1SCc1c(C(=O)O)sc2cccc(F)c12 [AVI-291] | – | – | 0 | 68 | 0.34 | 1 | 68 | – | TRUE | – | Adenosine | 41 | – | IC50 ([1]; Dose-response, SARS CoV-2 macrodomain HTRF assay, read-out: IC50): > 1000 µM; inhibition at 200 µM [1, 20]: 41%; Comment ([2]; comment on ligand modeling / Phe132 loop density): Second ligand conformation, not modeled, DMSO x2; PanDDA run, DMSO background map: Hit [2, 21]: TRUE; PanDDA run, DMSO background map: Modeled [2, 21]: TRUE; PanDDA run, DMSO background map: 1-BDC [2, 22]: 0.34; Pandda run, overall: Hit [2, 23]: TRUE; Pandda run, overall: Modeled [2, 23]: TRUE; Pandda run, overall: Modeling comment [2, 23]: Second ligand conformation, not modeled, DMSO x2; Pandda run, overall: Modeling comment [2, 9]: Duplicate, not modeled; Pandda run, overall: Hit [2, 8]: TRUE; PanDDA run, DMSO background map: Hit [2, 9]: TRUE; PanDDA run, DMSO background map: 1-BDC [2, 10]: 0.25 |
| O=C(O)C(F)(F)F.OC1([C@H]2CCCN2c2ncnc3[nH]ccc23)Cc2ccccc2C1 [AVI-3731] | 1.1 | 1.1 | – | – | 0.2 | 1 | – | Adenosine | – | 40 | – | 100 | – | inhibition at 200 µM [1, 25]: 100%; Pandda run, overall: Modeled [2, 9]: TRUE; Pandda run, overall: Hit [2, 17]: TRUE; PanDDA run, DMSO background map: 1-BDC ([2]; soak concentration 10 mM): 0.2; PanDDA run, DMSO background map: Hit ([2]; soak concentration 10 mM): TRUE |
| CC1(C)CCC(O)(CNc2ncnc3[nH]ccc23)CC1 [AVI-4310] | 1.3 | 1.3 | – | – | – | – | – | – | – | – | – | – | 0.17 | Modeling comment (PanDDA run, overall) ([2]; crystal soak 10 mM): Weak density, not modeled; Hit (PanDDA run, overall) [2, 24]: TRUE; Hit (PanDDA run, DMSO background map) ([2]; crystal soak 10 mM): TRUE; 1-BDC (PanDDA run, DMSO background map) ([2]; crystal soak 10 mM, event 1): 0.14 |
| CC1(C)C[C@@H](CO)N(c2ncnc3[nH]ccc23)C1.O=C(O)C(F)(F)F [AVI-3704] | 1.1 | 1.1 | – | – | 0.33 | 1 | – | Adenosine | – | 66 | – | 90 | – | inhibition at 200 µM [1, 25]: 90%; Pandda run, overall: Modeled [2, 9]: TRUE; Pandda run, overall: Hit [2, 17]: TRUE; PanDDA run, DMSO background map: 1-BDC ([2]; soak concentration 10 mM): 0.33; PanDDA run, DMSO background map: Hit ([2]; soak concentration 10 mM): TRUE |
| OCC(Cc1ccccc1)Nc1ncnc2[nH]ccc12 (stereo not drawn) [AVI-313] | 1.2 | – | – | – | 0.18 | 2 | – | – | TRUE | 36 | Adenosine | 75 | – | Hill slope [1, 19]: 1.2; inhibition at 200 µM [1, 20]: 75%; PanDDA run, DMSO background map: 1-BDC [2, 3]: 0.18; Pandda run, overall: Hit [2, 4]: TRUE; Pandda run, overall: Modeled [2, 4]: TRUE; PanDDA run, DMSO background map: Hit [2, 5]: TRUE; PanDDA run, DMSO background map: Modeled [2, 5]: TRUE; PanDDA run, DMSO background map: Hit [2, 21]: TRUE; PanDDA run, DMSO background map: 1-BDC [2, 22]: 0.25; Pandda run, overall: Hit [2, 23]: TRUE; Pandda run, overall: Modeling comment [2, 23]: Duplicate, not modeled |
